In PubChem BioAssay (NCI):
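Growth conditions: 96-well plates. Treatment: test compound, 48 hours, 5 concentrations. Analysis: linear interpolation between bracketing concentrations; unreached endpoints set to highest concentration. GI50 is the concentration that inhibits growth by half. TGI denotes the concentration required for complete inhibition of growth.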

Tests used:
Experiment in all cases: NCI anticancer screen, dose series, 48 h
OVCAR-3 ovarian = system: OVCAR-3 ovarian
RXF 393 renal = system: RXF 393 renal
EKVX NSCLC = system: EKVX NSCLC
RPMI-8226 leukemia = system: RPMI-8226 leukemia
ACHN renal = system: ACHN renal
PC-3 prostate = system: PC-3 prostate
SF-268 CNS = system: SF-268 CNS
SW-620 colon = system: SW-620 colon
HOP-92 NSCLC = system: HOP-92 NSCLC
A498 renal = system: A498 renal

SMILES | GI50 (OVCAR-3 ovarian) | TGI (OVCAR-3 ovarian) | GI50 (RXF 393 renal) | TGI (RXF 393 renal) | GI50 (EKVX NSCLC) | TGI (EKVX NSCLC) | GI50 (RPMI-8226 leukemia) | TGI (RPMI-8226 leukemia) | GI50 (ACHN renal) | TGI (ACHN renal) | GI50 (PC-3 prostate) | TGI (PC-3 prostate) | GI50 (SF-268 CNS) | TGI (SF-268 CNS) | GI50 (SW-620 colon) | TGI (SW-620 colon) | GI50 (HOP-92 NSCLC) | TGI (HOP-92 NSCLC) | GI50 (A498 renal) | TGI (A498 renal)
CC(=O)NCc1cccc(C#Cc2cncnc2Nc2ccc(OCc3cccc(F)c3)c(Cl)c2)c1 | 11.6 µM | > 25 µM | 13 µM | > 25 µM | 1.46 µM | > 14.8 µM | 15.4 µM | > 25 µM | 5.84 µM | > 25 µM | 8.37 µM | > 25 µM | 16.7 µM | > 25 µM | 18.3 µM | > 25 µM | 5.66 µM | > 25 µM | 3.52 µM | 24.8 µM
NS(=O)(=O)c1ccc(-c2cc3ccncc3cc2OCc2ccccc2)cc1 | 12.1 µM | > 25 µM | 7.16 µM | > 25 µM | > 22.9 µM | > 25 µM | > 18.2 µM | > 25 µM | > 19 µM | > 25 µM | > 20.5 µM | > 25 µM | > 20.1 µM | > 25 µM | > 22.9 µM | > 25 µM | 4.94 µM | > 25 µM | 5.65 µM | > 25 µM
COC1=C(OC)C(=O)C(SC/C=C(\C)CCCC(C)CCCC(C)CCCC(C)C)=CC1=O (centres undefined) | 0.857 µM | > 100 µM | 1.36 µM | > 91.6 µM | 1.11 µM | > 37.7 µM | 0.126 µM | 2.88 µM | 2.04 µM | > 100 µM | 0.255 µM | > 100 µM | 1.98 µM | > 100 µM | 0.872 µM | > 100 µM | 1.41 µM | 6.65 µM | 1.57 µM | 6.05 µM
CSc1nc2sc3c(c2c(=O)n1-c1ccc(C(C)C)cc1)CCC(=O)C3 | 1.94 µM | 3.53 µM | 2.21 µM | 5.37 µM | 3.02 µM | > 100 µM | 2.1 µM | 5.07 µM | 2.25 µM | 4.48 µM | 1.6 µM | 3.21 µM | 2.18 µM | 5.2 µM | 2.23 µM | 4.56 µM | 2.21 µM | 5.24 µM | 20.4 µM | 82.7 µM
COc1cc(/C=C/C(=O)c2cccc(-n3cc(-c4ccc(Cl)cc4)[nH]c3=O)c2)cc(OC)c1OC | 2.48 µM | 6.02 µM | 3.22 µM | 7.7 µM | 23.9 µM | > 100 µM | 3.92 µM | > 100 µM | 7.17 µM | 19.5 µM | 16.5 µM | > 100 µM | 5.07 µM | 39.2 µM | 1.75 µM | 3.17 µM | > 100 µM | > 100 µM | 30.2 µM | > 100 µM
N#CCN1CCn2c1nsc2=S | > 100 µM | > 100 µM | > 100 µM | > 100 µM | > 100 µM | > 100 µM | > 100 µM | > 100 µM | > 100 µM | > 100 µM | > 100 µM | > 100 µM | > 100 µM | > 100 µM | > 100 µM | > 100 µM | > 100 µM | > 100 µM | > 100 µM | > 100 µM
COc1cc2c(cc1OCCCCN1CCN(C(=S)SCCC(C#N)(c3ccccc3)c3ccccc3)CC1)N=C[C@@H]1CCCN1C2=O | 1.2 µM | 2.93 µM | 0.414 µM | 2.01 µM | 1.88 µM | 5.74 µM | 0.496 µM | 2.89 µM | – | – | 0.697 µM | 2.41 µM | – | – | – | – | 1.07 µM | 14.3 µM | 1.19 µM | 2.81 µM
COc1ccc(NC(=O)C2CCC(CNS(=O)(=O)c3ccccc3)CC2)cc1OC (centres undefined) | > 100 µM | > 100 µM | > 100 µM | > 100 µM | > 100 µM | > 100 µM | > 100 µM | > 100 µM | > 100 µM | > 100 µM | > 100 µM | > 100 µM | 74.2 µM | > 100 µM | > 100 µM | > 100 µM | > 100 µM | > 100 µM | > 100 µM | > 100 µM
Nc1nc(Nc2ccccc2SSc2ccccc2Nc2nc(N)nc(C(Cl)(Cl)Cl)n2)nc(C(Cl)(Cl)Cl)n1 | 10.4 µM | 33.8 µM | 3.47 µM | 10.3 µM | 5.8 µM | 20.4 µM | 2.94 µM | 10.2 µM | 1.7 µM | 3.2 µM | 3.56 µM | 18.6 µM | 3.1 µM | 13.8 µM | 2.67 µM | 7.99 µM | 4.33 µM | 21.4 µM | 24.3 µM | 88.8 µM
Cn1cc(C2=C(c3cccc(OC[C@@H](O)CO)c3)C(=O)NC2=O)c2ccccc21 | 11.2 µM | > 25 µM | 2.08 µM | > 25 µM | – | – | > 25 µM | > 25 µM | 16.5 µM | > 25 µM | > 25 µM | > 25 µM | > 25 µM | > 25 µM | > 20.1 µM | > 25 µM | > 25 µM | > 25 µM | 0.656 µM | > 5.77 µM
COc1ccc(/C=C(\C#N)n2nnc3c(F)cccc32)cc1 | 0.283 µM | 2.53 µM | 0.182 µM | 0.572 µM | 0.501 µM | > 100 µM | 0.409 µM | > 100 µM | 0.689 µM | > 51.6 µM | 0.381 µM | > 100 µM | 1.68 µM | > 100 µM | 0.2 µM | > 100 µM | 0.293 µM | 42.9 µM | 0.22 µM | 1.04 µM
Cc1cc[n+]2c(c1)-c1cc(C)cc[n+]1CC2 | – | > 100 µM | – | > 100 µM | – | > 100 µM | – | > 100 µM | – | > 100 µM | – | > 100 µM | – | > 100 µM | – | > 100 µM | – | > 100 µM | – | > 100 µM
O=C(O)c1cccc(C(=O)O)c1S(=O)Cc1ccccc1 (centres undefined) | – | > 100 µM | – | > 100 µM | – | > 100 µM | – | > 100 µM | – | > 100 µM | – | > 100 µM | – | > 100 µM | – | > 100 µM | – | > 100 µM | – | > 100 µM
COC(=O)[C@H]1CCCN1C(=O)[C@H]1CCCN1C(=O)[C@@H](Cc1c[nH]c2ccccc12)NC(=S)Nc1cc(C(F)(F)F)cc(C(F)(F)F)c1 | 1.69 µM | 3.41 µM | 1.34 µM | 2.72 µM | – | – | 2.34 µM | 6.38 µM | 2.51 µM | 7.78 µM | 1.61 µM | 3.04 µM | 2 µM | 5.4 µM | 2 µM | 4.62 µM | 1.2 µM | 3.22 µM | 1.67 µM | 5.65 µM
C[C@]12CC[C@@H]3c4cc(OC(F)F)c(OS(N)(=O)=O)cc4CC[C@H]3[C@@H]1CC[C@@H]2O | 0.39 µM | 11.1 µM | 0.139 µM | 0.589 µM | 0.709 µM | 54.8 µM | 0.449 µM | 21.9 µM | 0.65 µM | 49.1 µM | 0.537 µM | 47.8 µM | 1.49 µM | 60.3 µM | 0.407 µM | 28.8 µM | 1.64 µM | 28.6 µM | 0.199 µM | 0.86 µM
Oc1c(I)cc(I)c2cccnc12 | 2.42 µM | 6.5 µM | 11.4 µM | 29.8 µM | 3.38 µM | 24.2 µM | 6.96 µM | > 100 µM | 4.19 µM | 26.8 µM | 4.68 µM | > 100 µM | 5.09 µM | 48.3 µM | 3.74 µM | > 100 µM | 8.48 µM | 83.3 µM | 12.2 µM | 58 µM
CC1=C(CC(=O)c2cccc([N+](=O)[O-])c2)C(=O)c2ccccc2C1=O | 2.82 µM | 9.34 µM | 3.14 µM | 16.6 µM | – | – | 4.42 µM | 37.4 µM | 2.96 µM | 11.9 µM | 7.14 µM | 63.2 µM | 9.19 µM | 26.9 µM | 4.01 µM | 18.9 µM | 4.38 µM | 17.7 µM | 42.5 µM | > 100 µM
Cc1ccc(-c2nc([P+](c3ccccc3)(c3ccccc3)c3ccccc3)c(S(=O)(=O)c3ccc(C)cc3)o2)cc1 | 0.755 µM | 2.07 µM | 1.4 µM | 2.79 µM | 1.21 µM | 2.98 µM | – | – | 1.46 µM | 2.78 µM | 1.43 µM | 3.28 µM | 1.55 µM | 2.97 µM | 0.929 µM | 2.47 µM | 1.43 µM | 3.13 µM | 1.61 µM | 4.77 µM
N#CCCN1C/C(=C/c2ccc(Cl)cc2)C(=O)/C(=C/c2ccc(Cl)cc2)C1 | 1.2 µM | 2.5 µM | 1.22 µM | 2.61 µM | – | – | 0.255 µM | 0.795 µM | 1.63 µM | 3.28 µM | 0.489 µM | 3.61 µM | 1.51 µM | 3.09 µM | 0.338 µM | 1.15 µM | 1.81 µM | 5 µM | 1.59 µM | 3.11 µM
